Data taken from patent US6511592B1, “Biosensor for pentachlorophenol” (ISIS Innovation Limited, priority 1998, dated 2003).

Assays:
PCPH [1] = biological target: T1, PCPH (Sphingobium chlorophenolicum, UniProt P42535); test: Substrate range of PCPH, oxidation determined by gas chromatography; type: biochemical, Flavobacterum sp. (ATCC 53874); parameters: made in house; host or cells: E. coli strain DH5a (tac promoter vector)
Excerpt: Samples from the environment contain many other compounds which may be substrates for PCPH and therefore interfere with PCP biosensing. The substrate range of the PCPH enzyme was therefore investigated. The compounds tested as possible substrates were toluene, biphenyl, phenylcyclohexane, 1-phenylcyclohexene, diphenylmethane, bibenzyl and hexadecane, included as a model long-chain alkane.

[2] = biological target: T2, pentachlorophenol hydroxylase (PCPH) (Sphingobium chlorophenolicum, UniProt P42535); details: earlier investigation of the substrate range (Orser and co-workers); cited from earlier work
T2 sequence (P42535 2-538): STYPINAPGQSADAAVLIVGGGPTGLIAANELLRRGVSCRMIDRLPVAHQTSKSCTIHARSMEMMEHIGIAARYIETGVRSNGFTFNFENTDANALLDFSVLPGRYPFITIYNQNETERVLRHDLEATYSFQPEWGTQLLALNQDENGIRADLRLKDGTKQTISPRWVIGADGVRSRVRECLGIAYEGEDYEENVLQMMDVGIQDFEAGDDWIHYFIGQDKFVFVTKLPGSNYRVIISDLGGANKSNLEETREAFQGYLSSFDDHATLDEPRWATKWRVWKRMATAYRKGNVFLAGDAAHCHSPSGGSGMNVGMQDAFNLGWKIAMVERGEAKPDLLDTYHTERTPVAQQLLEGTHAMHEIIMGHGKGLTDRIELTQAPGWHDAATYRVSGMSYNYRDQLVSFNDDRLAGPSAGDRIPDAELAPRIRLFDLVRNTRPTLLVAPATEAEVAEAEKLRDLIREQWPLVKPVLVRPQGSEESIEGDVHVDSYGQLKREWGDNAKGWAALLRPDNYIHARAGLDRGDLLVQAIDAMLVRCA

PCPH [3] = details: -800 mV, aerobic, after 30 mins; cyclic voltammetry and gas chromatography of the organic extract
PCPH [4] = biological target: T1, PCPH; test: PCP concentration-dependent catalytic current, immobilised PCPH electrode

SMILES | oxidised by PCPH (substrate or not) (PCPH [1]) | substrate of PCPH (oxidised / attacked) [2] | further results
C1=C(c2ccccc2)CCCC1 [1-phenylcyclohexene] | None of the compounds except bibenzyl was oxidised by PCPH |  | 
Oc1cccc(Cl)c1Cl [2,3-dichlorophenol] |  | poor substrate | 
Oc1c(Cl)c(Cl)c(Cl)c(Cl)c1Cl [PCP, pentachlorophenol] |  | oxidised by PCPH | product of electrochemically driven oxidation by PCPH (PCPH [3]): showed the presence of TeCH; linear range of concentration dependence of the catalytic current (PCPH [4]; PCPH 87 μM in the solution evaporated on the electrode, FIG. 1): ca. 8 μM; linear range of concentration dependence of the catalytic current (PCPH [4]; PCPH 196 μM in the solution evaporated on the electrode, FIG. 2): ca. 25 μM
c1ccccc1 [benzene] |  | not substrates | 
c1ccc(CCc2ccccc2)cc1 [bibenzyl] | a very small amount of product was detected |  | 
c1ccc(-c2ccccc2)cc1 [biphenyl] | None of the compounds except bibenzyl was oxidised by PCPH |  | 
c1ccc(Cc2ccccc2)cc1 [diphenylmethane] | None of the compounds except bibenzyl was oxidised by PCPH |  | 
CCCCCCCCCCCCCCCC [hexadecane] | None of the compounds except bibenzyl was oxidised by PCPH |  | 
Clc1cc(Cl)c(Cl)c(Cl)c1Cl [pentachlorobenzene] |  | not | 
c1ccc(C2CCCCC2)cc1 [phenylcyclohexane] | None of the compounds except bibenzyl was oxidised by PCPH |  | 
Cc1ccccc1 [toluene] | None of the compounds except bibenzyl was oxidised by PCPH |  | 
